Measured values from patent publication US20190290729A1, “PHARMACEUTICAL ASSOCIATION OF GROWTH FACTOR RECEPTOR AGONIST AND ADHESION PROTEIN INHIBITOR FOR CONVERTING A NEOPLASTIC CELL INTO A NON-NEOPLASTIC CELL AND USES THEREOF” (HISTIDE AG, priority 2015, published 2019).
Where no end group is shown, it is not given here.

Columns and labels:
MG63 cells [1] = experiment: p53 protein expression level, immunofluorescence staining quantified with ImageJ, osteosarcoma cells; format: cell-based, human; parameters: P53: unit not given here; settings: for p53 (%): Table 4, cyclic GFR-binding peptide in association with SiRNA Integrin alpha 3 and SiRNA Integrin beta 1, 400 ng/mL, 24 hours; for P53: Table 9, in association with SiRNA Integrin alpha 3+SiRNA Integrin beta 1 (SEQ ID NO: 141 to 163)
Description: (§1) The following starting materials and reagents were used: • Type-I collagen sponge was obtained from Sigma®. • PBS 1× was obtained from Gibco®. • MilliQ water: is water characterised in terms of resistivity (typically 18.2 MΩ·cm at 25° C.). • Low glucose Dulbecco's Modified Eagle Medium (DMEM) was obtained from Invitrogen® • Minimum Essential Medium Eagle without ascorbic acid (αMEM) was obtained from Invitrogen®. • All of the cell culture experiments were carried out without any serum in the medium for the first 8 hours of culture. • Osteosarcoma cells: MG63 cells were obtained from ATCC®. These cells were cultured in DMEM (Eagle's Minimum Essential Medium) medium supplemented with 10% fetal calf serum (FCS) and 1% penicillin/streptomycin. All cells were used at a low passage number (passage 10), were subconfluently cultured and were seeded at 10^4 cells/cm^2 for the purpose of the experiments. • Chondrosarcoma cells Hs819.T cells were obtained from ATCC®. These cells were cultured in DMEM (Eagle's Minimum Essential Medium) medium supplemented with 10% fetal calf serum (FCS) and 1% penicillin/streptomycin. All cells were used at a low passage number (passage 10), were subconfluently cultured and were seeded at 10^4 cells/cm^2 for the purpose of the experiments. • Rhabdomyosarcoma cells: A-673 cells were obtained from ATCC®. These cells were cultured in DMEM (Eagle's Minimum Essential Medium) medium supplemented with 10% fetal calf serum (FCS) and 1% penicillin/streptomycin. All cells were used at a low passage number (passage 10), were subconfluently cultured and were seeded at 10^4 cells/cm^2 for the purpose of the experiments. • Adenocarcinoma cells: HCC4006 cells were obtained from ATCC®. These cells were cultured in RPMI-1640 medium (obtained from ATCC®) supplemented with 10% fetal calf serum (FCS) and 1% penicillin/streptomycin. All cells were used at a low passage number (passage 10), were subconfluently cultured and were seeded at 10^4 cells/cm^2 for the purpose of the experiments. • CMFDA is a Cell Tracker Green obtained from Invitrogen®. • DAPI was obtained from Sigma®. • Fetal bovine serum (FBS) was obtained from Gibco®. • Penicillin/streptomycin was obtained from Invitrogen®. • The AlamarBlue® assay was obtained from Molecular Probes®. • Anti phospho-p53 antibody was obtained from Santa Cruz Biotechnology®, • Anti pRB antibody was obtained from Santa Cruz Biotechnology®, • Monoclonal anti-integrin (extracellular domain) αv, α5, α3, α4, β1, β3, β5 and β9 antibodies were obtained from Santa Cruz Biotechnology®, • Cell cytoskeletal filamentous actin (F-actin) was visualized by Alexa Fluor® 488 phalloidin Sigma® labeling. • Monoclonal anti-vinculin antibody (clone hVIN-1, produced in mouse) was obtained from Sigma®.
(§2) • All of the peptides were synthetized using conventional solution and/or solid phase peptide synthesis methods. • All of the experiments were performed with a concentration of 400 ng/mL of GFR-binding compound(s) as defined herein. • All cell culture experiments were performed with cultures on plastic coated with type-I collagen in order to mimic the physiological conditions of the human body. • The compositions of pharmaceutical compositions used in the examples below are summarized in the following table:
(§3) The cells were first fixed for 20 min with 4% paraformaldehyde/PBS at 4° C. After fixation, the cells were permeabilized in PBS containing 1% Triton X-100 for 15 min. Protein immunofluorescent visualization was performed by first treating the cells with 1% (v/v) specific monoclonal antibodies for 1 hour at 37° C. Then the samples were incubated with Alexa Fluor® 568 or 647 (F(ab′)2 fragment of IgG(H+L)) during 30 min at room temperature. The cell nuclei were counterstained in 20 ng/mL DAPI for 10 min at room temperature.
(§4) For this type of quantification the freeware image analysis ImageJ® software was used. […]

MG63 cells [2] = experiment: pRB phosphorylation level, immunofluorescence staining quantified with ImageJ, osteosarcoma cells; format: cell-based, human; settings: for pRB: Table 9, in association with SiRNA Integrin alpha 3+SiRNA Integrin beta 1 (SEQ ID NO: 141 to 163)
Description: as §1, §2, §3, §4

[3] = Table 4, MG63 cells, cyclic GFR-binding peptide in association with SiRNA Integrin alpha 3 and SiRNA Integrin beta 1, 400 ng/mL, 24 hours
[4] = Table 7, human osteosarcoma cells, MG63, GFR-binding compound within pharmaceutical association

| Sequence | p53 (%) (MG63 cells [1]) | pRB (%) (MG63 cells [2]; [3]) | P53 (MG63 cells [1]) | pRB (MG63 cells [2]; MG63 cells) | pRB (%) (MG63 cells [2]; [4]) |
| --- | --- | --- | --- | --- | --- |
| VPEAASSLSMLFFEIVRKKPIFLKVYPAATVEDKGVVTY (not fully specified; also: cyclic peptide) [SEQ ID NO: 38201] | 40% | 19% | – | – | – |
| CPKPSSAPTQLSAISTLYLDDSSNVILKNYQMIVVRA (Non-cyclic GFR-binding peptide) [SEQ ID NO: 159] | – | – | 44 | 9 | – |
| SRVLLRPVQMRKIDKGVVTYKKATVLLEEHDKGVVTY (not fully specified; also: cyclic peptide) [SEQ ID NO: 38216] | 41% | 11% | – | – | – |
| APTGGSATSMLYYDKGVVTYLRKHRGGVVKDKGVVTY (also: cyclic, ring not given here) [SEQ ID NO: 38204] | 37% | 11% | – | – | – |
| TQVAARPVQTRKIDDMGVPTKKATVAAEDHDKGVVTY (not fully specified; also: cyclic peptide) [SEQ ID NO: 38217] | 42% | 9% | – | – | – |
| CSIPKASSVPTELSATSVLYYDEYDEKVVLRKHEMVVEG (Non-cyclic GFR-binding peptide) [SEQ ID NO: 153] | – | – | 39 | 10 | – |
| CKVGKASSVPTKLNAISTLYLDDSSNVILKNYQ (Non-cyclic GFR-binding peptide) [SEQ ID NO: 160] | – | – | 38 | 8 | – |
| WWFWGKVPKPSSAPTQLSAISTLYLDEYDKVVLKNYQNMVVR (Non-cyclic GFR-binding peptide) [SEQ ID NO: 162] | – | – | 39 | 8 | – |
| CPKPSSAPTQLNAISMLYFGGGGGGGLKKYRNMVVRA (Non-cyclic GFR-binding peptide) [SEQ ID NO: 151] | – | – | 39 | 9 | – |
| VPTGGEPLTTLYYNDKQQIIEQLSNGGEHSDDMGVPT (also: cyclic peptide) [SEQ ID NO: 38215] | 39% | 16% | – | – | – |
| APVAAKPLSMLYVDKGVVTYDHHKDAAVEEDEYDKVV (also: cyclic, ring not given here) [SEQ ID NO: 38209] | 38% | 11% | – | – | – |
| CKVPKPSSAPTQLSAISTLYLDEYDKVVLKNYQNMVVRA (Non-cyclic GFR-binding peptide) [SEQ ID NO: 141] | – | – | 41 | 11 | – |
| VPTVVSPISMLYIDDMGVPTYKQYEVVVVEDDMGVPT (also: cyclic peptide) [SEQ ID NO: 38208] | 39% | 9% | – | – | – |
| CAPTQLSPISVLYKDDSSNVILKYHYTLEDH (Non-cyclic GFR-binding peptide) [SEQ ID NO: 148] | – | – | 42 | 9 | – |
| VPQAAEPLPMLYYDKGVVTYEQLSNAAVRSDKGVVTY (also: cyclic peptide) [SEQ ID NO: 38210] | 40% | 12% | – | – | – |
| SRVAARSVKMAKVGGGGGGGKEVQVAAEEHGGGGGG (not fully specified; also: cyclic peptide) [SEQ ID NO: 38213] | 49% | 21% | – | – | – |
| APTLLNAISMLYFNDKQQIILKKYRLLVVRNDKQQII (also: cyclic, ring not given here) [SEQ ID NO: 38203] | 44% | 12% | – | – | – |
| VSQDLSAISTLYLKIVRKEPLKNYQEMVEE (Non-cyclic GFR-binding peptide) [SEQ ID NO: 58] | – | – | – | – | 19% |

| Sequence | p53 (%) (MG63 cells [1]) | pRB (%) (MG63 cells [2]; [3]) | P53 (MG63 cells [1]) | pRB (MG63 cells [2]; MG63 cells) | pRB (%) (MG63 cells [2]; [4]) |
| --- | --- | --- | --- | --- | --- |
| CAPTKLSAISMLYLDSSNNVILKNYQ (Non-cyclic GFR-binding peptide) [SEQ ID NO: 154] | – | – | 40 | 14 | – |
| CKVGKASSVPTKLNAISTLYLDENEKVVLKKYREGMS (Non-cyclic GFR-binding peptide) [SEQ ID NO: 158] | – | – | 39 | 9 | – |
| CRNVQCRPTQVQLSAISTLYLEIVRKKPLKNYQTLEDH (Non-cyclic GFR-binding peptide) [SEQ ID NO: 149] | – | – | 35 | 12 | – |
| CAVPKASSAPTKLSATSVLYYDSSNNVVLRKHRNMVVK (Non-cyclic GFR-binding peptide) [SEQ ID NO: 146] | – | – | 38 | 11 | – |
| CPSSAPTQLSATSVLYYDDSSNVILRKHRQHNK (Non-cyclic GFR-binding peptide) [SEQ ID NO: 150] | – | – | 41 | 11 | – |
| VPTAAEPISMLYLDEYDKVVKFKYEAAAVSNDKQQII (also: cyclic peptide) [SEQ ID NO: 38206] | 36% | 8% | – | – | – |
| CASSAVSQELSAISMLYLGGGLKNYQDM (Non-cyclic GFR-binding peptide) [SEQ ID NO: 155] | – | – | 47 | 6 | – |
| VPTDDSATSTLYYDKGVVTYLRKHRDDEHSDKGVVTY (also: cyclic peptide) [SEQ ID NO: 38214] | 48% | 18% | – | – | – |
| GTPGPKVPKPSSAPTQLSAISTLYLDEYDKVVLKNYQNMAVR (Non-cyclic GFR-binding peptide) [SEQ ID NO: 163] | – | – | 41 | 7 | – |
| VPQQQEPLTTLYYDEYDKVVEQLSNQQVKSNDKQQII (also: cyclic peptide) [SEQ ID NO: 38211] | 47% | 14% | – | – | – |
| VPTVVSAISTLYLRIKPHQGQHLKNYQVVVVENDKQQII (also: cyclic peptide) [SEQ ID NO: 38202] | 42% | 9% | – | – | – |
| CKIPKASSVPTELNAISVLYFDENEKVILKKYRDMVVEGSG (Non-cyclic GFR-binding peptide) [SEQ ID NO: 144] | – | – | 40 | 7 | – |
| CASASPSSVSQDLSAISTLYLIGKTPKILKNYQMIVKSSKSS (Non-cyclic GFR-binding peptide) [SEQ ID NO: 143] | – | – | 37 | 14 | – |
| VPTMMSNITTQIMRIKPHQGQHIGEMSMMQHNDEYDKVV (also: cyclic peptide) [SEQ ID NO: 38212] | 51% | 14% | – | – | – |
| RNVQCRPTQLEPLPIVYYEIVRKKPEQLSNTLEDHLA [SEQ ID NO: 61] (Non-cyclic GFR-binding peptide) | – | – | – | – | 18% |
| ASASPSSVPQDLEPLTILYYVGRTPKVEQLSNMV (Non-cyclic GFR-binding peptide) [SEQ ID NO: 55] | – | – | – | – | 17% |
| RNVQCRPTQLEPLPIVYYEIVRKKPEQLSNTLEDHLA [SEQ ID NO: 56] (Non-cyclic GFR-binding peptide) | – | – | – | – | 21% |
